According to patent publication US5519008A, “Derivatives of triterpenoid acids as inhibitors of cell-adhesion molecules ELAM-1 (E-selectin) and LECAM-1 (L-selectin)” (Glycomed Incorporated, priority 1992, dated 1996):

Tests used:
[1] = tested on: arachidonic acid (AA), murine skin inflammation; assay: arachidonic acid (AA) murine skin (ear) inflammation model; type: in vivo; conditions: 10 μl of 100mg/ml solution applied to the ear immediately after AA; 6mm ear disk weighed 90 minutes later; average of 6 experiments
Experimental: For comparison, glycyrrhetinic acid was also tested. […] 10 μl of each compound was applied to the ear. […] 90 minutes later a 6mm disk of each ear was removed, and weighed. […] The results were the average of 6 experiments.

[2] = literature statement, Baren et al., J. Med. Chem. 17(2) (1974) 184-191; cited from earlier work

## 3β-O-(α-L-fucopyranosyl)-18β-olean-12-en-30-oic Acid [3-0-fucoside-18-β glycyrrhetinic acid]
[1]
  reduction of the % maximal inflammatory response caused by AA alone: about 60%

## CC1(C)[C@@H](O)CC[C@]2(C)[C@H]3CC=C4[C@@H]5C[C@@](C)(C(=O)O)CC[C@]5(C)CC[C@@]4(C)[C@]3(C)CC[C@@H]12 [11-deoxoglycyrrhetinic acid]
[2]
  aldosterone (DCA)-like activity: does not substantially show the DCA activity

## CC1(C)[C@@H](O)CC[C@]2(C)[C@H]3C(=O)C=C4[C@@H]5C[C@@](C)(C(=O)O)CC[C@]5(C)CC[C@@]4(C)[C@]3(C)CC[C@@H]12 [glycyrrhetinic acid]
[1]
  reduction of the % maximal inflammatory response caused by AA alone: about 60%
